Assay results as given in US20250345328A1, “METHODS OF TREATING A RAS RELATED DISEASE OR DISORDER” (Revolution Medicines, Inc., priority 2023, published 2025).

Key:
[1] = test system: human xenograft models with KRAS^G12X mutations; test: Human xenograft tumor models in mice; assay type: in vivo; conditions: for Tumor regressions in xenograft models: mice
Description: As described herein, Compound A is a potent, orally (PO) bioavailable RAS(ON) multi-selective inhibitor, selective for the active guanosine-5′-triphosphate (GTP)-bound state (RAS(ON)) of both mutant and wild-type variants of the canonical RAS isoforms (KRAS, NRAS, and HRAS) over other members of the RAS superfamily and other cellular targets. […] Binding of Compound A to CypA results in an inhibitory complex that binds RAS(ON), forming a high-affinity tri-complex that suppresses RAS signaling by disrupting interactions with effectors.
Dose levels greater than or equal to 80 mg achieved exposures that induced tumor regressions in human xenograft models with KRAS^G12X mutations in mice (FIG. 3).

[2] = test system: human KRAS^G12C NSCLC NCI-H2122 xenograft tumors; test: NCI-H2122 xenograft, Compound A plus RMC-6291 combination; assay type: in vivo; conditions: immune-deficient mice; repeated daily oral administration
Protocol: The antitumor activity of Compound A in combination with RMC-6291 was evaluated using immune-deficient mice bearing human KRAS^G12C NSCLC NCI-H2122 xenograft tumors.

KRAS^G12X VAF in ctDNA = test: KRAS variant allele frequency in ctDNA (Guardant Health ctDNA test); assay type: in vivo, human
Description: Lines inside box plots indicate median values; whiskers indicate largest or smallest value (at most±1.5× the interquartile range). Circles indicate data points >1.5 times the interquartile range; KRAS^G12X VAF at Cycle 1 Day 1 (pre-treatment) to Cycle 2 Day 1 or Cycle 3 Day 1 (on-treatment) determined by Guardant Health ctDNA test. ctDNA, circulating tumor DNA; VAF, variant allele frequency.
Whole-blood samples are collected from all subjects to measure Compound A concentrations, circulating tumor deoxyribonucleic acid (ctDNA) and other biomarkers. Samples for pharmacodynamic assays collected in Cycle 1 and beyond. Paired pretreatment and on treatment fresh tumor samples can optionally be collected from any subject if consent is obtained and at the discretion of the treating physician. Optional collection of pre-study treatment fresh biopsy should be performed prior to C1D1 dosing. An optional on-study treatment biopsy can be obtained with subject consent and at the discretion of the treating physician. The primary purpose of the optional on-study treatment biopsies is to assess pharmacodynamic markers and previously acquired pre-study treatment markers of resistance. […]
Patients with NSCLC and PDAC evaluated for molecular responses were dosed at 20-300 mg QD. […]

KRAS^G12X PDAC = test: Phase 1/1b study: tumor response per RECIST v1.1 in PDAC; assay type: in vivo, human
Protocol: FIG. 5 is a waterfall plot showing the best response in KRAS^G12X PDAC.
(§1) Subjects are assessed for response using Response Evaluation Criteria in Solid Tumors (version 1.1) (RECIST [v1.1]). All subjects with previous or current, known or suspected brain metastases must have a magnetic resonance imaging (MRI) of the brain (unless contraindicated) performed within 28 days prior to the first dose of Compound A (C1D1). Disease response for clinical management of subjects is assessed per RECIST (v1.1).

KRAS^G12X NSCLC = test: Phase 1/1b study: tumor response per RECIST v1.1 in NSCLC; assay type: in vivo, human
Protocol: FIG. 4 is a waterfall plot showing the best response in KRAS^G12X NSCLC.
as §1

[3] = Phase 1/1b study of Compound A: safety, treatment-related adverse events; assay type: in vivo, human; conditions: 10 to 400 mg QD
Protocol: This Example describes the study design of a Phase 1/1b study of Compound A in patients with advanced solid tumors harboring specific mutations in RAS with the first patient dosed in June 2022. There are 2 parts planned in this study: Part 1: Dose Escalation and Part 2: Dose Expansion. In the Dose Escalation Phase, safety/tolerability and pharmacokinetics (PK) are assessed, and one or more candidate recommended phase 2 dose and schedule (RP2DS) for further testing in the second part of the study is determined. Enrollment in the Dose Expansion Phase begins after determination of a candidate RP2DS. Part 2 of the study further evaluates the safety/tolerability, PK, and preliminary antitumor effects within specific histotypes. Dose Expansion/Dose Optimization cohorts include RAS-mutant advanced solid tumors with specific histotypes/genotypes (including, but not limited to, NSCLC, PDAC, CRC, melanoma, gynecological cancers, other solid tumors.
Safety assessments and procedures were performed. Real-time safety monitoring was performed to ensure that the protocol-specified dose modification guidelines are followed. In addition, C1 safety and available PK and pharmacodynamic data was reviewed and evaluated at each Compound A dose level/schedule to determine whether enrollment into the next higher dose-level cohort may proceed. A modified schedule can be evaluated in which Compound A may be administered more or less frequently than once daily (QD). The totality of the data from dose escalation cohorts was reviewed and one or more candidate RP2DS for expansion in Part 2 recommended.
Compound A was administered PO QD at the following dose levels until disease progression or unacceptable toxicity: 10, 20, 40, 80, 120, 160, 220, 300, 400, and 500 mg. Progression to the next Cohort and dose level may stop if DLT is observed at a lower dose level. Other dose levels not specified but within the range listed above may also be permitted based on emergent safety and PK data.
As of Sep. 11, 2023, 131 patients received Compound A at dose levels from 10 to 400 mg QD. The majority of patients had pancreatic cancer, non-small cell lung cancer, or colorectal cancer. The most common (≥10% of patients) treatment-related adverse events (TRAEs) were rash and gastrointestinal (GI)-related toxicities that were all Grade 1 or 2 in severity. Most rashes were acneiform or maculopapular, consistent with known on-target rash presentation from other RAS pathway inhibitors. […] The most common GI-related toxicities were nausea, diarrhea, and vomiting that were manageable with standard supportive care. The median duration of treatment at the time of the data extraction was 2.27 months.

[4] = KRAS G12X PDAC, 80 mg QD to 400 mg QD, RECIST v1.1, FIG. 5
[5] = one patient, 80 mg QD, at cycle 5
[6] = KRAS G12X NSCLC, 80 mg QD to 400 mg QD, RECIST v1.1, FIG. 4
[7] = Total (N = 131), as of Sep. 11, 2023

## CCn1c(-c2cc(N3CCN(C)CC3)cnc2[C@H](C)OC)c2c3cc(ccc31)-c1csc(n1)C[C@H](NC(=O)[C@H]1C[C@@H]1C)C(=O)N1CCC[C@H](N1)C(=O)OCC(C)(C)C2 [Compound A]
[1]; 10 mg/kg QD
  Tumor regressions in xenograft models: induces tumor regressions in sensitive models
[1]; 25 mg/kg QD
  Tumor regressions in xenograft models: induces tumor regressions in the majority of models
[1]; human xenograft tumor models, particularly KRAS^G12X
  Anti-tumor activity in vivo: significant anti-tumor activity
[2]
  Mean tumor regression: mean tumor regressions were not achieved
KRAS^G12X VAF in ctDNA; one patient with KRAS^G12V ovarian cancer, 10 mg QD, at C2D1
  Reduction in KRAS^G12V VAF: 60%
KRAS^G12X VAF in ctDNA; patients with NSCLC and PDAC dosed at 20-300 mg QD, FIG. 6
  Molecular response in ctDNA: reduction in ctDNA of the KRAS-mutated allele
KRAS^G12X PDAC; [4]
  Disease control rate: 87%
  Overall response rate: 20%
KRAS^G12X PDAC; [5]
  Response, case report KRAS^G12D PDAC: confirmed partial response
KRAS^G12X PDAC; one patient, 160 mg QD, at week 6
  Response, case report KRAS^G12R PDAC: confirmed partial response
KRAS^G12X NSCLC; [6]
  Disease control rate: 85%
  Overall response rate: 38%
KRAS^G12X NSCLC; [5]
  Response, case report KRAS^G12D NSCLC: confirmed partial response
KRAS^G12X NSCLC; one patient, 300 mg QD reduced to 200 mg QD due to fatigue, at week 6
  Response, case report KRAS^G12V NSCLC: confirmed complete response
KRAS^G12X NSCLC; one patient, 300 mg QD, within one week of start of treatment
  Clinical symptoms, case report KRAS^G12V NSCLC: clinical improvement in cough and dyspnea
[3]; 131 patients
  Dose dependence of rash: Rash frequency, but not severity, was dose-dependent
  Fatal TRAEs: No fatal TRAEs
  Severity of the most common (≥10% of patients) TRAEs (rash and GI-related toxicities): Grade 1 or 2
[3]; [7]
  ALT elevation TRAE, Any Grade: 8 (6) n(%)
  ALT elevation TRAE, maximum severity Grade 1: 6 (5) n(%)
  ALT elevation TRAE, maximum severity Grade 2: 1 (1) n(%)
  ALT elevation TRAE, maximum severity Grade 4: 0 n(%)
  AST elevation TRAE, Any Grade: 7 (5) n(%)
  AST elevation TRAE, maximum severity Grade 1: 6 (5) n(%)
  AST elevation TRAE, maximum severity Grade 2: 0 n(%)
  AST elevation TRAE, maximum severity Grade 4: 0 n(%)
  Diarrhea TRAE, Any Grade: 42 (32) n (%)
  Diarrhea TRAE, maximum severity Grade 1: 32 (24) n (%)
  Diarrhea TRAE, maximum severity Grade 2: 9 (7) n (%)
  Diarrhea TRAE, maximum severity Grade 3: 1 (1) n (%)
  Diarrhea TRAE, maximum severity Grade 4: 0 n (%)
  Electrocardiogram QT prolonged TRAE, Any Grade: 1 (1) n(%)
  Electrocardiogram QT prolonged TRAE, maximum severity Grade 1: 1 (1) n(%)
  Electrocardiogram QT prolonged TRAE, maximum severity Grade 2: 0 n(%)
  Electrocardiogram QT prolonged TRAE, maximum severity Grade 3: 0 n(%)
  Electrocardiogram QT prolonged TRAE, maximum severity Grade 4: 0 n(%)
  Fatigue TRAE, Any Grade: 16 (12) n (%)
  Fatigue TRAE, maximum severity Grade 1: 12 (9) n (%)
  Fatigue TRAE, maximum severity Grade 2: 4 (3) n (%)
  Fatigue TRAE, maximum severity Grade 3: 0 n (%)
